Experimental data: patent publication US6969507B2, “Imaging sexual response” (Epix Pharmaceuticals, Inc., priority 1999, dated 2005)

Test: Dynamic MS-325 contrast-enhanced MRI of the genitalia/perineum during neutral and erotic video
Assay type: in vivo, human
Settings: eight healthy women; 0.05 or 0.02 mmol/kg intravenous
Description: Imaging of the genitalia was performed in four pre-menopausal and four post-menopausal healthy, sexually functional women subjects after administration of MS-325 (MS-325, EPIX Medical, Inc.). All volunteers signed an IRB-approved informed consent form for the study.
Six of the subjects received an intravenous injection of 0.05 mmol/kg of MS-325 and two received an intravenous injection of 0.02 mmol/kg of MS-325. Dynamic MRI (3D SPGR, 11/1.7/35°) of the perineum was performed on all subjects while they viewed videos containing first neutral material, then erotic material and finally neutral material via a fiberoptic audiovideo system. Each segment of neutral or erotic material was up to 15 minutes in length. Subjects also filled out questionnaires in response to the videos that had them subjectively rate their degree of sexual arousal.
Serial imaging was performed at least every 3 minutes, beginning just prior to contrast injection and continuing up to 45 minutes post injection. […] Clitoral volume was measured at each time point. Relative regional blood volume was determined from signal intensity versus time curves and compared with subjective measures of arousal.
In these studies, MRI was compared with vaginal photoplethysmography to confirm that MRI accurately assessed the vascular component of the arousal response.

O=C([O-])CN(CCN(CC(=O)[O-])C[C@H](COP(=O)([O-])OC1CCC(c2ccccc2)(c2ccccc2)CC1)N(CC(=O)[O-])CC(=O)[O-])CC(=O)[O-].[Gd+3].[H+].[H+].[H+] [MS-325]
tolerability of the procedure (contrast injection and MRI): tolerated
